Experimental data as given in PMC7719179, “Small molecule inhibition of Dynamin-dependent endocytosis targets multiple niche signals and impairs leukemia stem cells” (Nature Communications, 2020).
Several values for one entry are separate records, joined by “and”; a condition that tells them apart may be missing. Equal entries are not always repeated.

Columns and labels:
[1] = system: Ba/F3-IL7R^Stat5-CA cells; assay: Cytotoxic activity in IL-7-dependent and IL-7-independent Ba/F3-IL7R^Stat5-CA cells; type: cell-based, murine; settings: for Survival (%) over survival at day 0, reported as 100%: Ba/F3-IL7R^Stat5-CA cells, dose = IC50 or LC50 of each drug; for sensitivity of Ba/F3-IL7R^Stat5-CA cells with constitutive pStat5 (doxycycline): result in words
From the text: The doxycycline-inducible dual-colour TRMPVIR (TRE-dsRed-miR30/shRNA-PGK-Venus-IRES-rtTA3) retroviral vector[84] was kindly given by R. A. Dickins and was modified by replacing the dsRed-miR30/shRNA sequence by a T2A self-cleaving peptide[85] fusioned with the mCherry fluorescent protein (from TRIPZ, Addgene) inserted into the BamHI and EcoRI sites of the plasmid downstream of the TRE promoter to generate the TxTCPVIR (TRE-gene-T2A-mCherry-PGK-Venus-IRES-rtTA3) retroviral vector. Using standard cloning techniques, we inserted the full-length sequence of Stat5-CA from the pMig-R1 construct into the TxTCPVIR vector to generate the TxTCPVIR-Stat5-CA construct. All subcloned constructs were verified by DNA sequencing (Micromon, Monash University, Australia). Detailed cloning strategies, primers sequences and vectors are available on request.
Ba/F3 cells (kindly provided by a person from The Walter and Eliza Hall Institute of Medical Research) were infected with pMIG-R1/Il7r retroviral supernatants produced in 293T cells, and transduced cells were sorted with a BD Influx (BD Australia) and selected by culture in medium supplemented with 5 ng/mL rmIL-7 (#217-17, Pepro Tech, Rocky Hill NJ, USA) for 7 days. Ba/F3 cells stably expressing Il7r (Ba/F3-IL7R) were infected with TxTCPVIR-Stat5-CA retroviral supernatants produced in 293T. Cell sorting was performed with a BD Influx and transduced cells were treated with doxycycline for 48 h to induce the expression of the Stat5-CA-T2A-mCherry fusion protein.
Flow cytometry analyses were performed as previously described[10],[86] on single-cell suspensions stained using BD Pharmingen antibodies (BD Australia, North Ryde NSW, Australia) against mouse CD4 (RM4-5), CD8 (53-6.7), CD25 (PC61.5), CD44 (IM7), CD45.1 (A20), CD45.2 (104), Thy1.2 (53-2.1; #561616), TCRβ (H57-597), CD117 (ACK45), CD135 (A2F10.1), CD150 (TC15-12F12.2; #562373), B220 (RA3-6B2; #563708), CD3 (145-2C11; #563004), CD19 (ID3; #557655), Gr-1 (RB6-8C5; #563299 and #565033), CD11b (M1/70; #563015 and #560455), Ter119 (Ter119; #565523 and #557909), Sca-1 (D7; #558160) and an eBioscience antibody (eBioscience, Invitrogen) against mouse NOTCH1 (22E5). DN3 populations and IL-7R were stained using BioLegend antibodies (Australian Biosearch, Balcatta WA, Australia) against mouse CD28 (E18) and CD127 (A7R34), respectively. Apoptosis was measured using an antibody against AnnexinV (#556420, BD Australia) and the […] Sytox Blue (BD Australia) following the manufacturer’s protocol.

Lmo2^Tg DN3a thymocytes = assay: Absolute numbers of co-cultured Lmo2^Tg DN3a thymocytes after in vitro treatment; type: cell-based, mouse; settings: 72 h, Dynole 34-2 0.2 μM, Ruxolitinib 0.2 μM, DAPT 0.1 μM
Method: Pre-leukemic and leukemic thymocytes were purified by flow cytometry and co-cultured on GFP-positive OP9 and OP9-DL1 stromal cell lines, as described previously. Thymocytes were co-cultured in reconstituted alpha-MEM medium (#12318, Gibco, Grand Island NY, USA) supplemented with 20% FCS (#12318), HEPES 10 mM (#15630-080), sodium pyruvate 1 mM (#11360-070), β-mercaptoethanol 55 μM (#21985-023), Glutamax 2 mM (#15750-060), 1% Penicillin/Streptomycin (#15140-122), 5 ng/mL rmFLT-3 ligand (#250-31 L, Pepro Tech), 5 ng/mL rmIL-7 (#217-17, Pepro Tech) and 25 ng/mL rmSCF (#250-03, Pepro Tech). […]

SMILES	Survival (%) over survival at day 0, reported as 100% ([1]; +IL-7 -DOX, 0 h)	Survival (%) over survival at day 0, reported as 100% ([1]; +IL-7 -DOX, 24 h)	Survival (%) over survival at day 0, reported as 100% ([1]; -IL-7 +DOX, 0 h)	Survival (%) over survival at day 0, reported as 100% ([1]; -IL-7 +DOX, 24 h)	Survival (%) over survival at day 0, reported as 100% ([1]; -IL-7 +DOX, 48 h)	Survival (%) over survival at day 0, reported as 100% ([1]; -IL-7 +DOX, 72 h)	Survival (%) over survival at day 0, reported as 100% ([1]; -IL-7 +DOX, 96 h)	Survival (%) over survival at day 0, reported as 100% ([1]; -IL-7 +DOX, 120 h)	sensitivity of Ba/F3-IL7R^Stat5-CA cells with constitutive pStat5 (doxycycline) [1]	Survival (%) over survival at day 0, reported as 100% ([1]; +IL-7 -DOX, 72 h)	Survival (%) over survival at day 0, reported as 100% ([1]; +IL-7 -DOX, 96 h)	Absolute numbers DN3a cells (Lmo2^Tg DN3a thymocytes)
N#CC[C@H](C1CCCC1)n1cc(-c2ncnc3[nH]ccc23)cn1 [Ruxolitinib]	101.66% and 101.91% and 100.26% and 101.92% and 100.41% and 100.83%	71.50% and 70.41% and 55.25% and 49.40% and 37.10% and 63.11%	100.45% and 99.83% and 99.53% and 102.59% and 101.73% and 102.89%	85.97% and 82.57% and 104.88% and 98.10% and 101.20% and 101.43%	97.70% and 95.00% and 95.90% and 97.50% and 97.30% and 99.10%	94.40% and 93.30% and 85.80% and 83.20% and 99.40% and 84.90%	93.30% and 85.80% and 83.20% and 99.40%	92.90% and 90.20% and 86.50% and 89.30% and 78.60% and 92.10%	resistant	–	–	–
CCCCCCCCNC(=O)C(C#N)=Cc1cn(CCCN(C)C)c2ccccc12 [Dynole 34-2, 2-Cyano-N-octyl-3-(1-(3-dimethylaminopropyl)-1H-indol-3-yl)-acrylamide]	100.02% and 100.26% and 101.92% and 100.41% and 100.83%	43.12% and 51.68% and 50.50% and 59.30% and 47.40% and 40.60%	100.62% and 100.47% and 99.53% and 102.59% and 101.73% and 102.89%	90.53% and 91.07% and 101.15% and 104.21% and 101.37% and 100.26%	94.10% and 95.40% and 97.40% and 99.30% and 95.90%	93.90% and 97.20% and 90.70% and 94.80% and 93.20% and 97.10%	93.40% and 86.60% and 95.50% and 96.20% and 87.10% and 90.40%	91.10% and 96.40% and 90.00% and 90.90% and 93.10% and 83.00%	resistant	14.22% and 14.73% and 23.20% and 19.38% and 17.76% and 14.96%	9.23% and 10.77% and 10.13% and 6.51% and 4.52% and 2.59%	28200 and 18800 and 27200 and 23300 and 23200
C[C@H](NC(=O)Cc1cc(F)cc(F)c1)C(=O)N[C@H](C(=O)OC(C)(C)C)c1ccccc1 [DAPT, N-[N-(3,5-Difluorophenacetyl)-L-alanyl]-S-phenylglycine t-butyl ester]	–	–	–	–	–	–	–	–	–	–	–	26800 and 17800 and 27000 and 25800 and 24600
